This is an account of results in PMC7845594, “Novel Immune Modulators Enhance Caenorhabditis elegans Resistance to Multiple Pathogens” (mSphere, 2021).

In this test the test system is C. elegans transcriptome. The experiment in a line: Transcriptome profiling (Affymetrix microarrays), differentially expressed genes. The test is classed as in vivo, Caenorhabditis elegans. To be noted: downregulated genes. Summed up:
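Wild-type young-adult C. elegans (~6,000 per condition, triplicate) were exposed to each drug at 100 µM or to DMSO for 8 h without pathogen. TRIzol/RNeasy RNA was profiled on Affymetrix arrays. Fold changes were normalized to each gene's mean across conditions and clustered by Euclidean distance with average linkage.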

Molecules are shown by their SMILES.

On to `O=c1cc(CNc2ccc(Br)cc2)nc2sccn12` [LK56], for which the “Fold Change” value by setting is: (Gene F37C12.7, Affy_ID 174751_at) 0.2156; (Gene R11.4, Affy_ID 177194_at) 0.488; (Gene Y92C3B.2, Affy_ID 175744_s_at) 0.43.
